Test [1] relates to PBMC stimulated with anti-CD3 and anti-CD28 antibodies. The test is described as follows: CD3/CD28 mediated PBMC proliferation assay. Particulars: Homo sapiens, 72 h, read-out: CD3/CD28 PMBC proliferation IC50 (nM).
Experimental: Individual wells of 96 well tissue culture plates were coated with 50 μL of 5 μg/mL anti-CD3 (OKT3, eBiosciences) overnight at 4° C. Human blood was collected in EDTA containing vacutainer tubes. […] The cells were placed in a humidified 37° C. incubator for 72 hours. Controls included unstimulated cells and media alone.
For test [2], the system named is experimental autoimmune encephalomyelitis (EAE). The test is described as follows: Experimental autoimmune encephalomyelitis (EAE) model of multiple sclerosis. In kind it is in vivo, female C57BL/6 mice. To be noted: oral gavage once daily, 30 mg/kg. The method, then: TEC kinases play important roles in immune cells and pathogenic microglia in multiple sclerosis. The efficacy of compound 16 was evaluated in experimental autoimmune encephalomyelitis (EAE), a mouse model of multiple sclerosis. […] A group of ten naïve C57BL/6 mice was maintained as a negative control. […] Mouse is not alert. 5.0—Death or severe paralysis resulting in euthanasia.

A further test concerns the target BTK (Homo sapiens (Human), UniProt Q06187). In words: Kinase inhibition assay (Nanosyn, microfluidic detection), BTK. Type of test: biochemical. To be noted: 1 mM ATP, 3 hours at 25° C.
The target in another test is TXK (Homo sapiens (Human), UniProt P42681). In words: Kinase inhibition assay (Nanosyn, microfluidic detection), TXK. In kind it is biochemical. To be noted: 1 mM ATP, 3 hours at 25° C.
TXK, sequence (P42681 whole entry): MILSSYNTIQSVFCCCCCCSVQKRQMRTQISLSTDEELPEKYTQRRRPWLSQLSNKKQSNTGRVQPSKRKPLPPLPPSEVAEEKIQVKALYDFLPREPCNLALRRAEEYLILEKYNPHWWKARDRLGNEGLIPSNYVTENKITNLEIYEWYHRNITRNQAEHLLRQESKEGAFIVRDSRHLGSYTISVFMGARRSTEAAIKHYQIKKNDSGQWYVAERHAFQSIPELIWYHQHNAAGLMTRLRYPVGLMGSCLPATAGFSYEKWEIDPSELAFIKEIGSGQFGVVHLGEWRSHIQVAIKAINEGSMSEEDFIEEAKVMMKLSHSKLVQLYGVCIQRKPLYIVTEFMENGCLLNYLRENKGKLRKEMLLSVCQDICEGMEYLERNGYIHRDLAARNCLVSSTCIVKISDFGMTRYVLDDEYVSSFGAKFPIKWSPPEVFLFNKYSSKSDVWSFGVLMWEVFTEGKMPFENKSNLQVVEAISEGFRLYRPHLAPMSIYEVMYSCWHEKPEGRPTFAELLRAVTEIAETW

The values that follow come from patent US10752615B2, “Spirocyclic containing compounds and pharmaceutical uses thereof” (GB005, Inc., priority 2016, dated 2020).

BTK, sequence (Q06187 whole entry): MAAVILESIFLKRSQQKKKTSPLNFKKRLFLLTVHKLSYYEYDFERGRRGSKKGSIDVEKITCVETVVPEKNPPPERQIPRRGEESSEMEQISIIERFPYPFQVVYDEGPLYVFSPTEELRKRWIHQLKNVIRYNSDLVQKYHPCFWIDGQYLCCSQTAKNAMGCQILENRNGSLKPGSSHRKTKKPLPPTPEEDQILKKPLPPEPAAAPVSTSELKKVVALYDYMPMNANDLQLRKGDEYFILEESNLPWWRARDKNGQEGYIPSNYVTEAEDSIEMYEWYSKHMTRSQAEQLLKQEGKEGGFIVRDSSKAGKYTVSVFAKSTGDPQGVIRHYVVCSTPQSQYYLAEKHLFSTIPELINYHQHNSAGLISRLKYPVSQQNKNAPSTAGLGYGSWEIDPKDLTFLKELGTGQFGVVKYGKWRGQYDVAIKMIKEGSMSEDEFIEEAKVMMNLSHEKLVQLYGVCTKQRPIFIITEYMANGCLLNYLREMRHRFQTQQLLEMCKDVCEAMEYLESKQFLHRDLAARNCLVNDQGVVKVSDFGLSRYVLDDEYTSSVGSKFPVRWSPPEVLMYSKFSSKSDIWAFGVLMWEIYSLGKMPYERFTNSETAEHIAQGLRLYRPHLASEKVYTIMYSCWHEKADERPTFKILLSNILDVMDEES

For the molecule `C=CC(=O)N1CC[C@]2(C1)C[C@H](n1c(NC(=O)c3ccno3)nc3ccccc31)C2` [Compound 45], in test [1], the IC50 turned out to be 60.3 nM.

Consider `C=CC(=O)N1CC[C@]2(C1)C[C@H](n1c(NC(=O)c3ccc(NC(=O)C4CCOCC4)s3)nc3ccccc31)C2` [Compound 112], for which, in test [1], the IC50 was over 300 nM.

As for `C=CC(=O)N1CC[C@]2(C1)C[C@H](n1c(NC(=O)c3ccc(C(=O)O)s3)nc3ccccc31)C2` [Compound 100], the IC50 in test [1] is over 300 nM.

In the case of `C=CC(=O)N1CC[C@]2(C1)C[C@H](n1c(NC(=O)c3cc4c(s3)CCCC4)nc3ccccc31)C2` [Compound 80], the IC50 in test [1] was over 300 nM.

For the molecule `C=CC(=O)N1CC[C@]2(C1)C[C@@H](n1c(NC(=O)c3cnc(C(C)C)s3)nc3cc(CN[C@@H](C)C(C)(C)C)ccc31)C2` [Compound 11], the IC50 in test [1] is over 300 nM.

In the case of `C=CC(=O)N1CC[C@]2(C1)C[C@H](n1c(NC(=O)c3cc4ccccc4s3)nc3ccccc31)C2` [Compound 81], the IC50 in test [1] is over 300 nM.

In the case of `C=CC(=O)N1CC[C@]2(C1)C[C@H](n1c(NC(=O)c3ccc(-c4cnco4)s3)nc3ccccc31)C2` [Compound 16], the “disease severity (EAE score)” value in test [2] (in PEG 400, treated after onset of symptoms, mice) is given as “greatly attenuated”. Besides, the “symptoms of neurological deficit” value in test [2] (versus vehicle treated animals that rapidly progressed) was “minimal symptoms”. For the same molecule, the IC50 on BTK stood at 0.94 nM.

As for `C=CC(=O)N1CC[C@]2(C1)C[C@H](n1c(NC(=O)c3ccc(-c4ccnc(OC)c4)s3)nc3ccccc31)C2` [Compound 96], the IC50 against TXK came to 0.35 nM; on BTK it was 1.55 nM.

With `C=CC(=O)N1CC[C@]2(C1)C[C@H](n1c(NC(=O)c3ccc(-c4cc[nH]n4)s3)nc3ccccc31)C2` [Compound 116], the IC50 against TXK was found to be 3.08 nM; on BTK it was 15.7 nM.

Regarding `C=CC(=O)N1CC[C@]2(C1)C[C@H](n1c(NC(=O)c3ccc(Oc4ccccc4)nc3)nc3ccccc31)C2` [Compound 66], the IC50 stood at 4.34 nM against TXK and 11.2 nM on BTK.

Take `C=CC(=O)N1CC[C@]2(C1)C[C@H](n1c(NC(=O)c3ccc(-c4ccc(C)nc4)s3)nc3ccccc31)C2` [Compound 143]: the values for the IC50 against TXK and at BTK were 9.08 nM and 7.92 nM, respectively.

As to `C=CC(=O)N1CC[C@]2(C1)C[C@H](n1c(NC(=O)c3cccnc3)nc3cc(CN[C@@H](C)C(C)(C)C)ccc31)C2` [Compound 22], the IC50 at TXK is 1.71 nM; on BTK it was 4.79 nM.

For `C=CC(=O)N1CC[C@]2(C1)C[C@H](n1c(NC(=O)c3ccc(C)nc3)nc3ccccc31)C2` [Compound 47], the IC50 at TXK was 2.69 nM; at BTK, 11.3 nM.

Turning to `C=CC(=O)N1CC[C@]2(C1)C[C@H](n1c(NC(=O)c3ccc(-c4ccnc(NC)n4)s3)nc3ccccc31)C2` [Compound 137], the values for the IC50 at TXK and on BTK were 0.76 nM and 0.98 nM, respectively.

In the case of `C#Cc1ccc(C(=O)Nc2nc3cc(CN[C@@H](C)C(C)(C)C)ccc3n2[C@H]2C[C@@]3(CCN(C(=O)C=C)C3)C2)s1` [Compound 28], the IC50 against TXK stood at 0.63 nM; on BTK, 1.7 nM.

With `C=CC(=O)N1CC[C@]2(C1)C[C@H](n1c(NC(=O)c3ccc(-c4cnco4)s3)nc3cc(N(C)C(=O)[C@H](C)N4CCOCC4)ccc31)C2` [Compound 59], the results for the IC50 at TXK and on BTK were 0.44 nM and 1.64 nM, respectively.

As to `C=CC(=O)N1CC[C@]2(C1)C[C@H](n1c(NC(=O)c3ccc(-c4ccccc4)nc3)nc3cc(CN[C@@H](C)C(C)(C)C)ccc31)C2` [Compound 33], the figures for the IC50 against TXK and at BTK were 0.32 nM and 0.78 nM, respectively.

Regarding `C=CC(=O)N1CC[C@]2(C1)C[C@@H](n1c(NC(=O)c3ccc(-c4cnco4)s3)nc3ccc(CN4CCCC4)cc31)C2` [Compound 86], the IC50 was found to be 2.24 nM against TXK and 8.41 nM against BTK.

Consider `C=CC(=O)N1CC[C@]2(C1)C[C@H](n1c(NC(=O)c3ccc(-c4cn[nH]c4)s3)nc3ccccc31)C2` [Compound 124], for which the IC50 was determined as 0.34 nM on TXK and 1.43 nM against BTK.

Take `C=CC(=O)N1CC[C@]2(C1)C[C@H](n1c(NC(=O)c3ccc(-c4cc[nH]c(=O)c4)s3)nc3cc(CO)ccc31)C2` [Compound 29]: the IC50 on TXK came out at 0.27 nM; against BTK, 0.84 nM.

Regarding `C=CC(=O)N1CC[C@]2(C1)C[C@H](n1c(NC(=O)c3ccc(-c4cnco4)s3)nc3cc(N(C)C(=O)C4CC4)ccc31)C2` [Compound 52], the IC50 against TXK was determined as 0.39 nM; against BTK, 0.58 nM.

Regarding `C=CC(=O)N1CC[C@]2(C1)C[C@H](n1c(NC(=O)c3ccc(-c4cnco4)s3)nc3c(F)cccc31)C2` [Compound 61], the IC50 against TXK worked out at 0.49 nM; at BTK it was 6.77 nM.

With `C=CC(=O)N1CCC2(CC1)CC(n1c(NC(=O)c3ccc(C(F)F)s3)nc3cc(CN[C@@H](C)C(C)(C)C)ccc31)C2` [Compound 12], the IC50 in test [1] was over 300 nM.

With `C=CC(=O)N1CC[C@]2(C1)C[C@H](n1c(NC(=O)c3ccc(-c4cccnn4)s3)nc3ccccc31)C2` [Compound 76], the IC50 turned out to be 2.8 nM at TXK and 22.6 nM against BTK.

Turning to `C=CC(=O)N1CC[C@]2(C1)C[C@H](n1c(NC(=O)c3ccc(-c4ccnc(F)c4)s3)nc3ccccc31)C2` [Compound 125], the figures for the IC50 against TXK and at BTK were 0.24 nM and 1.06 nM, respectively.

For `C=CC(=O)N1CC[C@]2(C1)C[C@H](n1c(NC(=O)c3ccc(-c4cccc(NC)n4)s3)nc3ccccc31)C2` [Compound 139], the figures for the IC50 against TXK and against BTK were 0.75 nM and 1.54 nM, respectively.

In the case of `C=CC(=O)N1CC[C@]2(C1)C[C@H](n1c(NC(=O)c3cnco3)nc3cc(CN[C@@H](C)C(C)(C)C)ccc31)C2` [Compound 6], the IC50 against TXK amounted to 2.86 nM; against BTK, 4.28 nM.

As to `C=CC(=O)N1CC[C@]2(C1)C[C@H](n1c(NC(=O)c3ccc(-c4ccc(N)nc4)s3)nc3ccccc31)C2` [Compound 31], the IC50 was determined as 1.03 nM on TXK and 5.38 nM against BTK.

Regarding `C=CC(=O)N1CC[C@]2(C1)C[C@H](n1c(NC(=O)c3ccc(-c4cncc(NC)c4)s3)nc3ccccc31)C2` [Compound 142], the IC50 came out at 0.48 nM against TXK and 0.62 nM at BTK.

As to `C=CC(=O)N1CC[C@]2(C1)C[C@@H](n1c(NC(=O)c3ccc(-c4cnco4)s3)nc3c(OC)cccc31)C2` [Compound 88], the IC50 in test [1] is over 300 nM.

In the case of `C=CC(=O)N1CC[C@]2(C1)C[C@H](n1c(NC(=O)c3ccc(C#N)cc3)nc3ccccc31)C2` [Compound 48], the IC50 came out at 1.16 nM against TXK and 4.37 nM against BTK.

In the case of `C=CC(=O)N1CC[C@]2(C1)C[C@H](n1c(NC(=O)c3ccc(OC)nc3)nc3cc(CN[C@@H](C)C(C)(C)C)ccc31)C2` [Compound 32], the IC50 at TXK is 0.7 nM; against BTK, 5.45 nM.

In the case of `C=CC(=O)N1CC[C@]2(C1)C[C@@H](n1c(NC(=O)c3ccc(-c4cnco4)s3)nc3c(Cl)cccc31)C2` [Compound 72], in test [1], the IC50 is over 300 nM.

Take `C=CC(=O)N1CC[C@]2(C1)C[C@H](n1c(NC(=O)c3ccc(-c4cc(NC)ncn4)s3)nc3ccccc31)C2` [Compound 145]: the IC50 against TXK is 0.2 nM; on BTK, 0.49 nM.

Turning to `C=CC(=O)N1CC[C@]2(C1)C[C@H](n1c(NC(=O)c3ccc(-c4cnco4)s3)nc3cccc(F)c31)C2` [Compound 56], the IC50 at TXK came out at 0.26 nM; at BTK, 1.56 nM.

Take `C=CC(=O)N1CC[C@]2(C1)C[C@H](n1c(NC(=O)c3ccc(-c4ccc(CO)nc4)s3)nc3ccccc31)C2` [Compound 144]: the IC50 against TXK was determined as 1.51 nM; against BTK, 3.45 nM.
